Source: patent US20040204466A1, “Treatment of bronchial asthma using 5-HT3 receptor antagonists” (Orchid Chemicals and Pharmaceuticals Ltd., priority 2003, published 2004)

How the values were obtained:
Format in all cases: in vivo, female Balb/c mice
[1] = tested on: ovalbumin sensitized and challenged mice; assay: Serum IgE levels; conditions: gavage 120 μg/kg twice a day for 10 days; values increased, albeit insignificantly
[2] = tested on: ovalbumin sensitized and challenged mice; assay: Airway hyperresponsiveness to methacholine (Penh, barometric plethysmography); conditions: 24 hours after antigen challenge, increasing doses of methacholine, FIGS. 5 and 6
Method: Four to five-week old female Balb/c mice (Harlan Laboratories, Indianapolis, Ind.) were housed according to the NIH guidelines and were allowed constant access to food and water. Intraperitoneal injections of 6 μg of grade V chicken egg ovalbumin (Ova; Sigma-Aldrich, St. Louis, Mo.) adsorbed to 2.25 mg Imject Alum (Pierce, Rockford, Ill.) and dissolved in PBS. Aerosol sensitization with 0.2% ovalbumin (Ova) for 10 minutes using Ultra-Neb 90 nebulizer (DeVilbiss, Somerset, Pa.). Twenty-four hours after antigen challenge, the mice were challenged with increasing does of methacholine and Penh values were recorded by barometric plethysmography.

[3] = tested on: ovalbumin sensitized and challenged mice; assay: Eosinophils in BAL fluid following methacholine challenge; conditions: immediately following methacholine challenge; FIGS. 7 and 8
[4] = tested on: ovalbumin sensitized and challenged mice; assay: Ova-specific airway resistance of early and late allergic response to antigen challenge; conditions: gavage 120 μg/kg twice a day for 10 days
Method: Four to five-week old female Balb/c mice (Harlan Laboratories, Indianapolis, Ind.) were housed according to the NIH guidelines and were allowed constant access to food and water. Intraperitoneal injections of 6 μg of grade V chicken egg ovalbumin (Ova; Sigma-Aldrich, St. Louis, Mo.) adsorbed to 2.25 mg Imject Alum (Pierce, Rockford, Ill.) and dissolved in PBS. Aerosol sensitization with 0.2% ovalbumin (Ova) for 10 minutes using Ultra-Neb 90 nebulizer (DeVilbiss, Somerset, Pa.). Ondansetron was administered by gavage in the dose of 120 μg/kg twice a day for 10 days.

For `Cc1nccn1CC1CCc2c(c3ccccc3n2C)C1=O` (centres unmarked) [Ondansetron], the “mean serum IgE concentrations” value [1] was “unaffected”, the AHR to methacholine [2] was “completely suppressed” and the “numbers of eosinophil in BAL” value [3] was “significantly descried numbers of eosinophil”. The “Ova-specific airway resistance of the early allergic response (EAR)” value ([4]; FIG. 1) was “without EAR protection” and the “Ova-specific airway resistance of the late allergic response (LAR)” value ([4]; P <0.001, FIG. 2) was “significant protection during the LAR”.
